Experimental data: patent US20150352108A1, “AMINO-PYRIMIDINE COMPOUNDS AS INHIBITORS OF TBK1 AND/OR IKK EPSILON” (Alzheimer's Institute of America, priority 2009, published 2015)

Assays:
IKKε = target: T1, IKKε (Homo sapiens, UniProt Q14164); experiment: In-vitro IKKε kinase assay ([γ33]ATP filter-plate); type: biochemical; conditions: text bins; read-out: IC50 for inhibition of the kinase activity of IKKε
T1 construct: His-tag; made in house; host or cells: Sf9 insect cells
T1 sequence (Q14164 1-716): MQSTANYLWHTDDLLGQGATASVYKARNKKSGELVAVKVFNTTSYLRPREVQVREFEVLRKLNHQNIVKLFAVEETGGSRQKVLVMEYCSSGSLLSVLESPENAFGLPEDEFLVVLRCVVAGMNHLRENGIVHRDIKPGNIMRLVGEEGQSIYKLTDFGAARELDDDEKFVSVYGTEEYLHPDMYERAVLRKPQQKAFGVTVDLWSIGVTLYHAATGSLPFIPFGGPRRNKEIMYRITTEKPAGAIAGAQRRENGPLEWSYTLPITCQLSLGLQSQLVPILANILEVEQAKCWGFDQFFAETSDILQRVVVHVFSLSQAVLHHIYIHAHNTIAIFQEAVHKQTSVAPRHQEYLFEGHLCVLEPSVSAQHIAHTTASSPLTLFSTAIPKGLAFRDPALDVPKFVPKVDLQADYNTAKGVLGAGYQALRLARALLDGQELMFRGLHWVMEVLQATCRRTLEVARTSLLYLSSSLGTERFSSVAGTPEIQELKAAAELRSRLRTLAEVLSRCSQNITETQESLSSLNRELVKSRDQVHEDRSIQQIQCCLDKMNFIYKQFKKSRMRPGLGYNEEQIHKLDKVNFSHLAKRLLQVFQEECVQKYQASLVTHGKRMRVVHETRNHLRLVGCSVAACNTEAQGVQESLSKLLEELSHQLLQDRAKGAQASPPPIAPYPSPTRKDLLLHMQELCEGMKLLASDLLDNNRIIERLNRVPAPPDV
Procedure, shortened: (§1)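 His-tagged IKKε and TBK1 from Sf9 cells were assayed with myelin basic protein or casein and [γ33]ATP at 2×Km ATP (32 μM for IKKε, 60 μM for TBK1). Enzyme was 0.1 or 0.015 μg/ml for IKKε and 0.1 or 0.02 μg/ml for TBK1 (normal/sensitized). Reactions ran 30-45 min, were filter-captured, scintillation-counted, and normalized to DMSO after background subtraction.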

TBK1 = target: T2, TBK1 (Homo sapiens, UniProt Q9UHD2); experiment: In-vitro TBK1 kinase assay ([γ33]ATP filter-plate); type: biochemical; conditions: text bins; read-out: IC50 for inhibition of the kinase activity of TBK1
T2 construct: His-tag; made in house; host or cells: Sf9 insect cells
T2 sequence (Q9UHD2 1-729): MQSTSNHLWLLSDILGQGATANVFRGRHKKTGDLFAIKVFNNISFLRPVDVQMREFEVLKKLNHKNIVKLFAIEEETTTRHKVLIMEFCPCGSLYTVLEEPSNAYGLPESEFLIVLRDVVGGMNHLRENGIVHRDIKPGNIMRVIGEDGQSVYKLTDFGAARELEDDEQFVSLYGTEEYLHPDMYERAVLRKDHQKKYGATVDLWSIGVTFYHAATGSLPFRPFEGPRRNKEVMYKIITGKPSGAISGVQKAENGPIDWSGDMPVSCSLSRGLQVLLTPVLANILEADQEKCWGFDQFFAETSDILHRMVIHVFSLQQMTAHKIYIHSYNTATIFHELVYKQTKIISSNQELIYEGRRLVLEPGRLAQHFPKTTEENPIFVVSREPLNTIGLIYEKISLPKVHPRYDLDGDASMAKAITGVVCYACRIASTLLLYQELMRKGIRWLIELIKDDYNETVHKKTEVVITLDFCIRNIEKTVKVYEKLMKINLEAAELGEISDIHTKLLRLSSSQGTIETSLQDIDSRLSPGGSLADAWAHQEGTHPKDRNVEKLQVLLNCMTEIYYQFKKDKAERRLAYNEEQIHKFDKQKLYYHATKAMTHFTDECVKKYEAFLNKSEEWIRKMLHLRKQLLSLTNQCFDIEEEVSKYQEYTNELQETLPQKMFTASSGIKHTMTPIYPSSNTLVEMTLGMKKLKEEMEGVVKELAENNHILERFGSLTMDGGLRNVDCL
Procedure, shortened: as §1

| IC50 (IKKε) [nM] | IC50 (TBK1) [nM] | Structure (SMILES) |
| --- | --- | --- |
| 5 to 50 | 10 to 100 | COc1ccc(-c2ccnc(Nc3cccc(NC(=O)N4CC[C@@H](O)C4)c3)n2)cc1C#N [compound 372, (3R)-N-(3-{[4-(3-Cyano-4-methoxyphenyl)pyrimidin-2-yl]amino}phenyl)-3-hydroxypyrrolidine-1-carboxamide] |
| < 5 | 10 to 100 | N#Cc1cccc(-c2ccnc(Nc3cccc(S(N)(=O)=O)c3)n2)c1 [compound 373] |
| < 5 | < 10 | N#Cc1cc(-c2ccnc(Nc3ccc(N4CCOCC4)c(Cl)c3)n2)ccc1OC1CCOCC1 [compound 374, 5-(2-{[3-chloro-4-(morpholin-4-yl)phenyl]amino}pyrimidin-4-yl)-2-(tetrahydro-2H-pyran-4-yloxy)benzonitrile] |
| 5 to 50 | 10 to 100 | COc1ccc(-c2ccnc(Nc3ccc(S(=O)(=O)NCCCN(C)C)c(OC)c3)n2)cc1C#N [compound 375, 4-{[4-(3-Cyano-4-methoxyphenyl)pyrimidin-2-yl]amino}-N-[3-(dimethylamino)propyl]-2-methoxybenzene-sulfonamide] |
| < 5 | < 10 | COc1cc(Nc2nccc(-c3ccc(OC4CCN(C(=O)[C@H](C)O)CC4)c(C#N)c3)n2)ccc1C(=O)NCCCN(C)C [compound 376, 4-({4-[3-cyano-4-({1-[(2S)-2-hydroxypropanoyl]piperidin-4-yl}oxy)phenyl]pyrimidin-2-yl}amino)-N-[3-(dimethylamino)propyl]-2-methoxybenzamide] |
| 5 to 50 | 10 to 100 | COc1cc(NC(=O)N2CC[C@@H](O)C2)cc(Nc2nccc(-c3ccc(OC)c(C#N)c3)n2)c1 [compound 378, (3R)-N-(3-{[4-(3-Cyano-4-methoxyphenyl)pyrimidin-2-yl]amino}-5-methoxyphenyl)-3-hydroxypyrrolidine-1-carboxamide] |
| 5 to 50 | 10 to 100 | COc1cc(NC(=O)NCCO)cc(Nc2nccc(-c3ccc(OC4CCN(C(C)=O)CC4)c(C#N)c3)n2)c1 [compound 380] |
| 5 to 50 | 10 to 100 | COc1ccc(-c2ccnc(Nc3ccc(S(=O)(=O)NCCCN)c(OC)c3)n2)cc1C#N [compound 383, N-(3-Aminopropyl)-4-{[4-(3-cyano-4-methoxyphenyl)pyrimidin-2-yl]amino}-2-methoxybenzene-sulfonamide] |
| 5 to 50 | 100 to 500 | N#Cc1cccc(-c2ccnc(Nc3ccc4[nH]ncc4c3)n2)c1 [compound 387, 3-[2-(1H-Indazol-5-ylamino)pyrimidin-4-yl]benzonitrile] |
| 50 to 500 | 100 to 500 | COc1cccc(Nc2nccc(-c3cccc(C#N)c3)n2)c1 [compound 389, 3-{2-[(3-Methoxyphenyl)amino]pyrimidin-4-yl}benzonitrile] |
| 50 to 500 | 100 to 500 | COc1ccc(Nc2nc(-c3cccc(C#N)c3)c3nc[nH]c3n2)cc1OC [compound 390, 3-{2-[(3,4-Dimethoxyphenyl)amino]-3H-purin-6-yl}benzonitrile] |
| < 5 | < 10 | COc1cc(Nc2nccc(-c3ccc(OC4CCOCC4)c(C#N)c3)n2)ccc1S(=O)(=O)N1CCCC1 [compound 394, 5-(2-{[3-methoxy-4-(pyrrolidin-1-ylsulfonyl)phenyl]amino}pyrimidin-4-yl)-2-(tetrahydro-2H-pyran-4-yloxy)benzonitrile] |
| < 5 | < 10 | CNCCCNS(=O)(=O)c1ccc(Nc2nccc(-c3ccc(OC4CCOCC4)c(C#N)c3)n2)cc1OC [compound 396] |
| < 5 | < 10 | COc1cc(Nc2nccc(-c3ccc(OC4CCOCC4)c(C#N)c3)n2)ccc1S(=O)(=O)N(C)CCCN(C)C [compound 397] |
| < 5 | < 10 | N#Cc1cc(-c2ccnc(Nc3ccc(CS(=O)(=O)N4CCCC4)cc3)n2)ccc1OC1CCOCC1 [compound 403, 5-[2-({4-[(Pyrrolidin-1-ylsulfonyl)methyl]phenyl}amino)pyrimidin-4-yl]-2-(tetrahydro-2H-pyran-4-yloxy)benzonitrile] |
| 5 to 50 | < 10 | N#Cc1cc(-c2ccnc(Nc3cccc(CC(=O)NCCCN4CCOCC4)c3)n2)ccc1OC1CCOCC1 [compound 407, 2-[3-({4-[3-Cyano-4-(tetrahydro-2H-pyran-4-yloxy)phenyl]pyrimidin-2-yl}amino)phenyl]-N-[3-(morpholin-4-yl)propyl]acetamide] |
| 5 to 50 | 10 to 100 | Cc1ccc(Nc2nccc(-c3ccc(NC(=O)C(C)C)c(C#N)c3)n2)cc1OCCCN1CCOCC1 [compound 410] |
| 5 to 50 | 10 to 100 | CC(C)C(=O)Nc1ccc(-c2ccnc(Nc3ccc(F)c(OCCCN4CCOCC4)c3)n2)cc1C#N [compound 411, N-{2-Cyano-4-[2-({4-fluoro-3-[3-(morpholin-4-yl)propoxy]phenyl}amino)pyrimidin-4-yl]phenyl}-2-methylpropanamide] |
| 5 to 50 | 10 to 100 | CCN(CC)CCN(CC)S(=O)(=O)Cc1ccc(Nc2nccc(-c3ccc(OC4CCOCC4)c(C#N)c3)n2)cc1 [compound 412, 1-[4-({4-[3-Cyano-4-(tetrahydro-2H-pyran-4-yloxy)phenyl]pyrimidin-2-yl}amino)phenyl]-N-[2-(diethylamino)ethyl]-N-ethylmethane-sulfonamide] |
| 5 to 50 | 10 to 100 | N#Cc1cc(-c2ccnc(Nc3ccc(N4CCOCC4)cc3)n2)ccc1NC(=O)C1CCC1 [compound 416, N-[2-cyano-4-(2-{[4-(morpholin-4-yl)phenyl]amino}pyrimidin-4-yl)phenyl] cyclobutane-carboxamide] |
| 5 to 50 | < 10 | CCC(C)C(=O)Nc1ccc(-c2ccnc(Nc3ccc(N4CCOCC4)cc3)n2)cc1C#N (stereo not shown) [compound 417, N-[2-cyano-4-(2-{[4-(morpholin-4-yl)phenyl]amino}pyrimidin-4-yl)phenyl]-2-methylbutanamide] |
| 5 to 50 | 10 to 100 | CC(C)C(=O)Nc1ccc(-c2ccnc(Nc3ccc(CC(=O)N4CCOCC4)cc3)n2)cc1C#N [compound 419, N-{2-cyano-4-[2-({4-[2-(morpholin-4-yl)-2-oxoethyl]phenyl}amino)pyrimidin-4-yl]phenyl}-2-methylpropanamide] |
| 5 to 50 | 10 to 100 | CC(C)C(=O)Nc1ccc(-c2ccnc(Nc3ccc(CC(=O)NCCCN4CCOCC4)cc3)n2)cc1C#N [compound 420, N-[2-cyano-4-(2-{[4-(2-{[3-(morpholin-4-yl)propyl]amino}-2-oxoethyl)phenyl]amino}pyrimidin-4-yl)phenyl]-2-methylpropanamide] |
| 5 to 50 | 10 to 100 | CC(C)C(=O)Nc1ccc(-c2ccnc(Nc3cccc(CC(=O)N4CCOCC4)c3)n2)cc1C#N [compound 421, N-{2-cyano-4-[2-({3-[2-(morpholin-4-yl)-2-oxoethyl]phenyl}amino)pyrimidin-4-yl]phenyl}-2-methylpropanamide] |
| 5 to 50 | 10 to 100 | CC(C)C(=O)Nc1ccc(-c2ccnc(Nc3cccc(CC(=O)NCCCN4CCOCC4)c3)n2)cc1C#N [compound 422, N-[2-cyano-4-(2-{[3-(2-{[3-(morpholin-4-yl)propyl]amino}-2-oxoethyl)phenyl]amino}pyrimidin-4-yl)phenyl]-2-methylpropanamide] |

| Structure (SMILES) | IC50 (IKKε) [nM] | IC50 (TBK1) [nM] |
| --- | --- | --- |
| CCN(CC)CCN(CC)C(=O)Cc1cccc(Nc2nccc(-c3ccc(OC4CCOCC4)c(C#N)c3)n2)c1 [compound 409, 2-[3-({4-[3-Cyano-4-(tetrahydro-2H-pyran-4-yloxy)phenyl]pyrimidin-2-yl}amino)phenyl]-N-[2-(diethylamino)ethyl]-N-ethylacetamide] | 5 to 50 | < 10 |
